Each structure is given as a SMILES string.

The nature of the series: Water-solubility test. Format: physicochemical. On the procedure:
The hydrophilic metal surface treatment agent (Compound 21) (MW 608.86, 0.32 g) produced in Example 3 was added to ultrapure water (50.09 g), and the mixture was stirred after the water temperature was heated to 60° C.
With respect to even the hydrophilic metal surface treatment agent having an octadecyl group, i.e. n-C18H37, as a long chain hydrocarbon group, an aqueous solution having a concentration of 10.32 mM could be prepared.

Take `CCCCCCCCCCCCCCCCCCSC(=O)CCC(=O)NC(COC(COC(CO)CO)COC(CO)CO)COC(COC(CO)CO)COC(CO)CO` [Compound 21]: for the setting “0.32 g in ultrapure water 50.09 g, stirred at 60° C., after 3 hours”, the visible undissolved residue entry was “no visible undissolved residue”. Under “ultrapure water, 60° C., no surfactant or solubilizing agent”, the “concentration of aqueous solution that could be prepared” value is 10320 µM.

The values above are taken from patent US11124881B2, “Hydrophilic metal surface treatment agent” (CHEMICAL DENSHI CO., LTD., priority 2019, dated 2021).
